The source of these data is patent publication US11001581B2, “Compounds which inhibit RNA polymerase, compositions including such compounds, and their use” (THE JOHNS HOPKINS UNIVERSITY, priority 2014, dated 2021).

Test [1] relates to NCI60 cancer cell lines. The note with it: earlier studies of the inventors; cited from earlier work.
The subject of test [2] is tumor burden. The note with it: earlier studies of the inventors; cited from earlier work.
Test [3] concerns RPA194. The test can be described thus: Determination of RPA194 IC50 (immunofluorescence image analysis of RPA194 degradation). Particulars: U2OS cells, 3 h treatment, 0.1-10 μM, fold change to control, three-parameter fit. The format is cell-based. The text has this:
(§1) Immunofluorescence, Epifluorescence Microscopy and Image Analysis. […] Cells were stained for RPA194 (C-1, Santa Cruz Biotechnology) and NCL (4E2, Abeam). […] DNA was counterstained with DAPI (Invitrogen). Images were captured using Axioplan2 fluorescence microscope (Zeiss) equipped with AxioCam HRc CCD-camera and AxioVision 4.5 software using EC Plan-Neofluar 20×/0.75 objective (Zeiss). […] Hue saturation and brightness range were defined individually for RPA194 and NCL. All values were normalized to the DNA content. Two-four fields of each treatment were recorded and quantification was based on an average of 200 cells.
Determination of RPA194 and NCL IC50. U2OS cells grown on coverslips were treated the compounds at 0.1, 0.5, 1, 5 and 10 μM, or vehicle (DMSO)-treated for 3 h and fixed and stained as above. All compounds, except when indicated, were tested in duplicate independent biological experiments Immunostaining for NCL and RPA194 was conducted separately, and cells were counterstained for DNA. Two-four fields of each treatment were captured using epifluorescence microscopy as above, and contained on average of 200 cells/analysis. […] Hue saturation and brightness range were defined individually for RPA194 and NCL, and all values were normalized to the DNA content.

In test [4] the test system is NCL. The test can be described thus: Determination of NCL IC50 (loss of NCL nucleolar intensity, immunofluorescence image analysis). The format is cell-based. Particulars: U2OS cells, 3 h treatment, 0.1-10 μM, fold change to control, three-parameter fit.
Source text: as §1
Determination of RPA194 and NCL IC50. […] All compounds, except when indicated, were tested in duplicate independent biological experiments Immunostaining for NCL and RPA194 was conducted separately, and cells were counterstained for DNA. Two-four fields of each treatment were captured using epifluorescence microscopy as above, and contained on average of 200 cells/analysis. […] Hue saturation and brightness range were defined individually for RPA194 and NCL, and all values were normalized to the DNA content.

In the case of `CN(C)CCNC(=O)c1cccn2c(=O)c3cc4ccccc4cc3nc12` [BMH-21, 12H-Benzo[g]pyrido[2,1-b]quinazoline-4-carboxamide, N-[2(dimethylamino)ethyl]-12-oxo], the “anticancer activity in NCI60 cancer cell lines” value in test [1] was “broad and potent anticancer activity”. Further, the “tumor burden in mouse xenograft assays” value in test [2] was “reduced tumor burden”.

Consider `CCN(CC)C1CCN(C(=O)c2cccn3c(=O)c4cc5ccccc5cc4nc23)C1` (stereo not drawn) [Compound 19, 4-[3-(diethylamino)pyrrolidine-1-carbonyl]-12H-benzo[g]pyrido[2,1-b]quinazoline-12-one], for which the results for the IC50 in test [3] and in test [4] were 32 µM and 11 µM, respectively.

In the case of `CN1CC(NC(=O)c2cccn3c(=O)c4cc5ccccc5cc4nc23)C1` [Compound 29, N-(1-methylazetidin-3-yl)-12-oxo-12H-benzo[g]pyrido[2,1-b]quinazoline-4-carboxamide], the IC50 in test [3] turned out to be 0.9 µM; in test [4], 0.47 µM.

`CC(C)(N)CNC(=O)c1cccn2c(=O)c3cc4ccccc4cc3nc12` [Compound 30, N-(2-amino-2-methyl-propyl)-12-oxo-12H-benzo[g]pyrido[2,1-b]quinazoline-4-carboxamide]: the IC50 is 0.27 µM in test [3] and 0.2 µM in test [4].

Consider `CN(C)C(C)(C)CNC(=O)c1cccn2c(=O)c3cc4ccccc4cc3nc12` [Compound 31, N-[2-(dimethylamino)-2-methyl-propyl]-12-oxo-12H-benzo[g]pyrido[2,1-b]quinazoline-4-carboxamide], for which the half-inhibitory concentration (IC50) in test [3] stood at 0.16 µM; in test [4], 0.14 µM.

`CC(N)CNC(=O)c1cccn2c(=O)c3cc4ccccc4cc3nc12` (stereo not drawn) [Compound 32, N-(2-aminopropyl)-12-oxo-12H-benzo[g]pyrido[2,1-b]quinazoline-4-carboxamide]: the 50% inhibitory concentration (IC50) in test [3] and in test [4] was 0.1 µM each time.

Turning to `C[C@@H](N)CNC(=O)c1cccn2c(=O)c3cc4ccccc4cc3nc12` [Compound 33, N-[(2R)-2-aminopropyl]-12-oxo-12H-benzo[g]pyrido[2,1-b]quinazoline-4-carboxamide], the IC50 in test [3] is 0.11 µM; in test [4], 0.81 µM.

Turning to `C[C@H](N)CNC(=O)c1cccn2c(=O)c3cc4ccccc4cc3nc12` [Compound 35, N-[(2S)-2-aminopropyl]-12-oxo-12H-benzo[g]pyrido[2,1-b]quinazoline-4-carboxamide], the concentration for half-maximal inhibition (IC50) in test [3] amounted to 0.12 µM; in test [4], 0.17 µM.

On to `O=C(NCCc1ccncc1)c1cccn2c(=O)c3cc4ccccc4cc3nc12` [Compound 37, 12-oxo-N-[2-(4-pyridyl)ethyl]-12H-benzo[g]pyrido[2,1-b]quinazoline-4-carboxamide], for which the figures for the IC50 in test [3] and in test [4] were 3.5 µM and > 100 µM, respectively.

Usually IC50 stands for the point on the concentration scale where inhibition reaches its midpoint. Low values mean greater potency in that assay, high ones weaker potency in that assay.
